Source: US20220256847A1, “CELL DEATH INHIBITOR AND CELL DEATH INHIBITION METHOD” (UNIVERSITY OF TSUKUBA, priority 2019, published 2022)

Tests used:
Type in all cases: in vivo
[1] = system: leaves of Nicotiana benthamiana; experiment: Observation of gangrene (cell death induced by transient protein expression) in leaves after agroinfiltration and spraying of the substance
Experimental: Nicotiana benthamiana was grown for 5 to 6 weeks under conditions of 25° C. and 16 hours in light and 8 hours in the dark. Each of the above-described vectors was introduced into an Agrobacterium tumefaciens GV3101 strain having a binary vector, and it was cultured at 28° C. until the stationary phase in L broth medium supplemented with 20 μM acetosyringone, 50 mg/L kanamycin, 30 mg/L gentamicin, and 30 mg/L rifampicin at 10 mM MES (pH 5.6).
Then, the culture solution was centrifuged to recover the Agrobacterium tumefaciens, and then suspended such that OD600 was approximately 1 by using an infiltration buffer (10 mM magnesium chloride, 10 mM MES, (pH 5.6), and 100 μM acetosyringone). The Agrobacterium tumefaciens was then left in this liquid for 2 to 3 hours.
After this, the suspension of Agrobacterium tumefaciens was infiltrated on the underside of the leaves of Nicotiana benthamiana by using a 1 mL syringe without a needle. Alternatively, in some cases, Nicotiana benthamiana was immersed in the Agrobacterium suspension (agroinfiltration liquid), and vacuum infiltrated by leaving it under a pressure of 736 mmHg for 5 minutes, and then bringing the pressure back to atmospheric pressure.
In addition, in some experiments, sodium ascorbate was added to the infiltration buffer. Expression induction of heat shock protein was performed by incubating the plant for 1 hour at 37° C. one day and three days after the infiltration. In the following Example, sodium L-ascorbate was used as sodium ascorbate.
Agroinfiltration using a syringe was performed to express GFP, hCu1, hFbxw7, PLP-GFP, and Cryj1 in the leaves of Nicotiana benthamiana. In the expression of PLP-GFP, a 1/100 amount of pBYR2HS-EGFP was simultaneously agroinfitrated. Each plant was cultured at 18° C. for seven days after agroinfiltration. In addition, 0, 30, 50, 100, 200, and 300 mM aqueous solutions of sodium ascorbate were sprayed once every two days.
The scale bar indicates 1 cm. […] In (a) to (f), the region surrounded by the dotted circle is a region expressing GFP, hCu1, hFbxw7, PLP-GFP, and Cryj1, respectively.
Agroinfiltration using a syringe was performed to express each of GFP, hCu1, and hFbxw7 in the leaves of Nicotiana benthamiana. Each plant was cultured at 25° C. for seven days after agroinfiltration. In addition, a 0 or 200 mM aqueous solution of sodium ascorbate was sprayed once every two days. The present Example was mainly different from Example 1 in the growth temperatures of the plant.
The scale bar indicates 1 cm.
Each plant was cultured at 18° C. for seven days after agroinfiltration.
Specifically, Nicotiana benthamiana was immersed in the agroinfiltration liquid, and vacuum infiltrated by leaving it under a pressure of 736 mmHg for 5 minutes, and then bringing the pressure back to atmospheric pressure, and thus the hFbxw7 protein was expressed. Each plant was cultured at 20° C. for seven days after agroinfiltration. In addition, 1 mM of each endoplasmic reticulum stress inhibitor was sprayed one day and three days after agroinfiltration.

[2] = system: hCu1 protein expressed in the leaves of Nicotiana benthamiana; experiment: hCu1 protein expression level, Western blotting with anti-FLAG antibody
Text: (§1) The soluble protein was then extracted from the region where the hCu1 protein was expressed in the leaves of each plant. The prepared soluble protein was then subjected to SDS-PAGE and transferred to a PVDF membrane. As described above, a FLAG tag was attached to the N-terminus of the hCu1 protein. Here, the hCu1 protein was detected by Western blotting with an anti-FLAG antibody.
FIG. 4A is a photograph showing the results of Western blotting. In FIG. 4A, “NT” indicates the results of the leaves of Nicotiana benthamiana without gene introduction, and “FW” indicates fresh weight. In FIG. 4A, the band indicated by the arrowhead indicates the band of the hCu1 protein. FIG. 4B is a graph showing the results of quantifying the expression level of the hCu1 protein based on FIG. 4A. […]
as §1, with “the” for “the region where the hCu1 protein was expressed in the”, “plant seven days after agroinfiltration.” for “plant.”
FIG. 13A is a photograph showing the results of Western blotting, and also illustrates the results of CBB staining. In FIG. 13A, “NT” indicates the results of the leaves of Nicotiana benthamiana without gene introduction, and “FW” indicates fresh weight. In addition, “vacuum” indicates the result of performing the vacuum infiltration, and “spray” indicates the result of spraying an aqueous solution of sodium ascorbate without adding sodium ascorbate to the agroinfiltration liquid. In addition, the band indicated by the arrowhead indicates the band of the hCu1 protein. In addition, “RbcL” indicates the Rubisco large subunit.
FIG. 13B is a graph showing the results of quantifying the expression level of the hCu1 protein based on FIG. 13A. In FIG. 13B, “vacuum” and “spray” indicate the same meaning as those in FIG. 13A.

[3] = system: PLP-GFP protein expressed in the leaves of Nicotiana benthamiana; experiment: PLP-GFP protein expression level, Western blotting with anti-GFP antibody; settings: Example 1: spray, concentration of 100 mM or higher, once every two days; 18° C., seven days
Experimental: The soluble protein was then extracted from the region where the PLP-GFP protein was expressed in the leaves of each plant. The prepared soluble protein was then subjected to SDS-PAGE and transferred to a PVDF membrane. For comparison, 100 ng, 200 ng, and 300 ng of purified GFP proteins were also subjected to SDS-PAGE and transferred to a PVDF membrane. Then, the PLP-GFP protein was detected by Western blotting with an anti-GFP antibody. FIG. 5A is a photograph showing the results of Western blotting. In FIG. 5A, “NT” indicates the results of the leaves of Nicotiana benthamiana without gene introduction, and “FW” indicates fresh weight. In FIG. 5A, the band indicated by the arrowhead indicates the band of the PLP-GFP protein. In addition, the band near 30 kDa is the band of the GFP protein. FIG. 5B is a graph showing the results of quantifying an expression level of the PLP-GFP protein based on FIG. 5A.

Nicotiana benthamiana = experiment: Observation of gangrene after adding the substance to the agroinfiltration liquid (vacuum infiltration); settings: hCu1, 25° C., seven days
Experimental: (§2) Sodium ascorbate was added to the agroinfiltration liquid to examine whether gangrene can be inhibited. Specifically, Nicotiana benthamiana was immersed in the agroinfiltration liquid, and vacuum infiltrated by leaving it under a pressure of 736 mmHg for 5 minutes, and then bringing the pressure back to atmospheric pressure, and thus the hCu1 protein was expressed. Here, sodium ascorbate having a final concentration of 80 mM, 100 mM, or 200 mM was added to the agroinfiltration liquid. Each plant was cultured at 25° C. for seven days after agroinfiltration.
In (a) to (c), “vacuum” indicates the results of vacuum infiltration.
as §2, with “0, 10, 20, 30,” for “80 mM, 100 mM,”, “40” for “200”, “liquid.” for “liquid. Each plant was cultured at 25° C. for seven days after agroinfiltration.”
Sodium ascorbate was administered only once at the time of agroinfiltration. […]

[4] = system: hFbxw7 protein expressed in the leaves of Nicotiana benthamiana; experiment: hFbxw7 protein expression, Western blotting with anti-FLAG antibody; settings: Example 2: 200 mM spray; 25° C.; three days after agroinfiltration
Text: The soluble protein was extracted from the region where the hFbxw7 protein was expressed in the leaves of each plant three days after agroinfiltration. The prepared soluble protein was then subjected to SDS-PAGE and transferred to a PVDF membrane. As described above, a FLAG tag was attached to the N-terminus of the hFbxw7 protein. Here, the hFbxw7 protein was detected by Western blotting with an anti-FLAG antibody. FIG. 9 is a photograph showing the results of Western blotting. FIG. 9 also illustrates the results of CBB staining. In FIG. 9, “NT” indicates the results of the leaves of Nicotiana benthamiana without gene introduction, and “FW” indicates fresh weight. In addition, “Mock” indicates the result of not spraying an aqueous solution of sodium ascorbate, and “AsA” indicates the result of spraying a 200 mM aqueous solution of sodium ascorbate. In addition, the band indicated by the arrowhead indicates the band of the hFbxw7 protein. In addition, “RbcL” indicates the Rubisco large subunit.

[5] = system: Cryj1 protein expressed in the leaves of Nicotiana benthamiana; experiment: Cryj1 protein expression, Western blotting with anti-Cryj1 antibody; settings: Example 8: 200 mM spray once every two days; vacuum infiltration; 24° C. or 20° C., seven days
Experimental: Nicotiana benthamiana was immersed in the agroinfiltration liquid, and vacuum infiltrated by leaving it under a pressure of 736 mmHg for 5 minutes, and then by bringing the pressure back to atmospheric pressure, and thus the Cryj1 protein was expressed. Each plant was cultured at 24° C. or 20° C. for seven days after agroinfiltration. In addition, a 0 mM or 200 mM aqueous solution of sodium ascorbate was sprayed once every two days.
The soluble protein was then extracted from the leaves of each plant seven days after agroinfiltration. The prepared soluble protein was then subjected to SDS-PAGE and transferred to a PVDF membrane. Then, the Cryj1 protein was detected by Western blotting with an anti-Cryj1 antibody.
FIG. 18A is a photograph showing the results of Western blotting. In FIG. 18B, “P” indicates the result of SDS-PAGE and Western blotting of the Cryj1 protein derived from a natural product as a positive control, “M” indicates a molecular weight marker, “WT” indicates the result of the leaves of Nicotiana benthamiana without gene introduction, “24° C.” indicates the result of culturing at 24° C., “20° C.” indicates the result of culturing at 20° C., and “+AsA” indicates the result of spraying a 200 mM aqueous solution of sodium ascorbate once every two days.

[6] = system: GFP protein expressed in the leaves of Nicotiana benthamiana; experiment: GFP protein expression level, SDS-PAGE and CBB staining of soluble leaf protein
[7] = Example 1: spray, concentration of 100 mM or higher, once every two days, 18° C., seven days

Structure (SMILES) | cell death induced by transient protein expression ([1]; Example 5: spray 30-300 mM once every two days, 18° C., seven days) | state of the leaves ([1]; Example 5: spray, concentration of 100 mM or higher, once every two days, 18° C., seven days) | expression level of the hCu1 protein [2, 7] | peak in the expression level of the hCu1 protein ([2]; Example 1: spray, concentration of 200 mM or higher, 18° C., seven days) | expression of the hCu1 protein ([2]; Example 2: 200 mM spray, 25° C., seven days after agroinfiltration) | expression level of the hCu1 protein, time of peak ([2]; Example 2: 200 mM spray, 25° C., three days after agroinfiltration) | expression of the hCu1 protein ([2]; Example 4: final concentration of 40 mM added to the agroinfiltration liquid, once, vacuum infiltration, 25° C., seven days) | expression level of the PLP-GFP protein [3] | gangrene induced by the substance (Nicotiana benthamiana; Example 3: concentration of 80 mM or higher (80, 100, 200 mM) added to the agroinfiltration liquid) | gangrene of the plant (Nicotiana benthamiana; Example 4: added to the agroinfiltration liquid (0-40 mM), once) | gangrene (cell death induced by transient protein expression) ([1]; Example 1: sprayed with 100, 200 and 300 mM aqueous solutions once every two days, 18° C., seven days after agroinfiltration, hCu1, hFbxw7, PLP-GFP, Cryj1 regions) | gangrene ([1]; Example 2: 200 mM spray once every two days, 25° C., seven days after agroinfiltration, GFP, hCu1, hFbxw7) | gangrene in GFP-expressing leaves ([1]; Example 2: 200 mM spray, 25° C., culturing continued for seven days after agroinfiltration) | expression of the hFbxw7 protein [4] | expression of Cryj1 protein [5] | expression level of the GFP protein [6, 7] | expression level of the Rubisco large subunit [6, 7] | GFP protein expression level ([6]; Example 2: 200 mM spray, 25° C., three, five and seven days after agroinfiltration)
O=C([O-])CC(O)(CC(=O)[O-])C(=O)[O-].[Na+].[Na+].[Na+] [sodium citrate, reference compound] | cannot inhibit cell death induced by transient protein expression | leaves were in a wilted state |  |  |  |  |  |  |  |  |  |  |  |  |  |  |  | 
O=C1O[C@H]([C@@H](O)CO)C([O-])=C1O.[Na+] [sodium ascorbate, sodium L-ascorbate] |  |  | increase in expression level of the hCu1 protein | peak in the expression level of the hCu1 protein was observed | expression of the hCu1 protein was maintained even seven days after agroinfiltration | peak in the expression level of the hCu1 protein was observed three days after agroinfiltration | expression of the hCu1 protein similar to a case where a 200 mM aqueous solution of sodium ascorbate was sprayed | increase in expression level of the PLP-GFP protein | gangrene possibly caused by osmotic stress was induced | reduce gangrene of the plant | gangrene was inhibited | tendency of gangrene suppression | tendency of gangrene reduction | expression of the hFbxw7 protein was observed | expression of Cryj1 protein was observed | increase in expression level of the GFP protein | increase in expression level of the Rubisco large subunit | GFP protein expression level sustenance
